According to US6428529B1, “Epidural administration of therapeutic compounds with sustained rate of release” (SkyePharma Inc., priority 1995, dated 2002):

Tests used:
rats [1] = experiment: Antinociception, hot plate test after epidural (or subcutaneous) dose; assay type: in vivo, Sprague-Dawley rats; details: 250 μg epidural
Experimental: Baseline values of nociception following placement of the epidural catheter were determined by subjecting the animals to standard hot plate (52.5±0.5° C.) testing as described in M. S. Wallace et al., (Anesth. Analg. 79:778-786, 1994). Response latency to nociception (in seconds) was measured from the time when the animals were placed on the hot plate to the time when they either licked their hind paw or jumped. The baseline (pretreatment) response latency value was defined as 0% of the maximum possible analgesia (MPA) in each experimental animal. […] Following epidural administration of the test solutions via the catheter emplanted as described above, the epidural catheter was flushed with 10 μl of 0.9% sodium chloride.
Antinociception was determined in 5 or 6 animals for each dose and each drug. To prevent tissue damage to the footpads, a cutoff time of 60 seconds was used. Accordingly, 100% MPA was defined as antinociception lasting ≧60 seconds.
Efficacy and respiratory depression curves were plotted as a function of time for each dose administered. Hot plate responses were calculated as a percentage of the maximum possible analgesia (%MPA) as described in Wallace et al. (supra): [formula]
All areas under the curves were calculated by the trapezoidal rule to the last data point using the RSTRIP computer program [Micromath, Salt Lake City, Utah]. […]

rats [2] = experiment: Respiratory depression quantified by pulse oximetry (SpO2) after single epidural bolus; details: for respiratory depression (decrease in SpO2): single epidural dose 10 to 2000 μg, sulfate
Experimental: Respiratory depression was quantified by pulse oximetry. The animals were removed from their cages, placed in polystyrene rat restraints (Plas Labs, Lansing, Mich.) and allowed to acclimate for 5 minutes. […] Pulse oximetry was performed on 5 to 6 animals at each data point, except for the 50 μg dose where 3 animals were used. The pulse oximetry values of percent hemoglobin oxygen saturation (SpO2) were monitored continuously in real time. The maximum value obtaining during the 3-minute recording period was defined as oxygen saturation.

In the case of CN1CC[C@]23c4c5ccc(O)c4O[C@H]2[C@@H](O)C=C[C@H]3[C@H]1C5.O=S(=O)(O)O [MS, morphine sulfate], the “peak effect (% of maximum possible analgesia)” value (rats [1]) is reported as about 100 % MPA, the “time to decrease to 50% MPA” value (rats [1]) is reported as 0.17 days and the delayed respiratory depression (rats [2]; single epidural dose) is reported as “no delayed respiratory depression”. For the same compound, the “respiratory depression (decrease in SpO2)” value (rats [2]; listed as free morphine) was “did cause respiratory suppression at high dosages” and the “respiratory depression (decrease in SpO2)” value (rats [2]) was “dose-dependent increase in respiratory depression”.
